These results are taken from patent US8491938B2, “Potent inhibitory effect of zinc in combination with sulforaphane on cancer cell growth” (University of Maryland, Baltimore, priority 2009, dated 2013).

What all share (assay type): cell-based, human
The subject of assay [1] is MT1/2. The assay is described as follows: Western blot of MT1/2 expression in HPR-1 cells. The following applies: zinc at 24 h, SFN at 6 h and 24 h. The procedure:
(§1) Total cellular proteins from the experimental samples were extracted by radioimmuno-precipitation assay (RIPA) lysis buffer (Upstate, Lake Placid, N.Y.) containing protease inhibitor (Roche Diagnostics Gmbh, Mannheim, Germany). The protein extracts (30 μg/lane) were applied to electrophoresis on an SDS-polyacrylamide gel, and then, a transferred poly(vinylidene fluoride) (PVDF) membrane (Millipore, Billerica, Mass.) was blocked in 5% nonfat dry milk in phosphate buffered saline (PBS) containing 0.05% Tween-20 (Sigma, St. Louis, Mo.) (PBST) for 1 hr at room temperature followed by the hybridization to the primary antibodies against PARP (BD pharmingen, San Jose, Calif.), caspase 3 (BD pharmingen, San Jose, Calif.), p-JNK and JNK1 (Santa Cruz, Calif.), pP38 and P38 (Cell Signaling Technology, Danvers, Mass.), ppERK1/2 (Sigma, St. Louis, Mo.), ERK1/2 (Cell Signaling Technology, Danvers, Mass.) at 4° C. overnight. After washing, the membranes were incubated with corresponding second antibodies. Beta-actin (Sigma, St. Louis, Mo.) and GAPDH (Cell Signaling Technology, Danvers, Mass.) were used as internal controls to monitor the sample loadings. […] The signals of targeted bands were scanned and quantified with an LKB Ultra Scan XL laser densitometer (Image Quant, Molecular Dynamics, Sunnyvale, Calif.).
For orientation: Immunoblotting shows a protein as a band on a membrane.

For assay [2], the system named is PC-3 cells. The assay is described as follows: ROS detection (carboxy-H2DCFDA, flow cytometry) in PC-3 cells. The following applies: for effect on ROS production induced by zinc, SFN or zinc/SFN combination / effect on surge of ROS induced by zinc/SFN combination: PC-3, inhibitor 6 mM; for effect on ROS production induced by zinc, SFN or zinc/SFN combination: 30 min pretreatment, 6 h and 24 h; for effect on surge of ROS induced by zinc/SFN combination: 24 h of treatment; for increase of ROS levels: PC-3, SFN alone. The procedure:
5-(and-6)-carboxy-2 ′,7 ′-dichlorodihydrofluorescein diacetate (carboxy-H2DCFDA,) was used to determine the intracellular ROS levels of individual cells. In living cells, this compound is oxidized and converted to the 2′,7′-dichlorofluoroscein (DCF) that is highly fluorescent. In the experiments, PC-3 cells cultured on 12-well plates were incubated in serum-free medium containing zinc sulfate ([…])/SFN (12 μM). Thirty min prior to the completion of the time course, carboxy-H2DCFDA was added at a final concentration of 5 μM. Cells were then collected and washed once with PBS. The fluorescent intensity of DCF was assayed by FACScan (Becton Dickinson)[3].
(In general: Flow cytometry measures light scatter and fluorescence of single cells or particles in a stream.)

Assay [3] deals with PC-3 cells. The assay is described as follows: Mitochondrial membrane potential (MMP) detection, DiOC6(3)/PI flow cytometry, PC-3 cells. The following applies: for effect on MMP versus control, single agent: PC-3, zinc alone or SFN 12 μM alone; for effect on MMP alteration induced by zinc/SFN: PC-3, pretreatment 30 min, treatment 24 h. The source says:
Cell flow cytometric analysis with 3,3′-dihexyloxacarbocyanine iodide (DiOC6(3); Invitrogen, Carlsbad, Calif.) and propidium iodide (PI;BD Pharmingen, San Jose, Calif.) was used to evaluate MMP and apoptosis of the cells. The fluorescence dye DiOC6(3) is featured by its accumulation in the mitochondrial matrix, which is resulted from negative mitochondrial membrane potential within viable cells. Thus, the changes of fluorescence of DiOC6(3) reflect the MMP alteration of the cells. Another fluorescence dye PI is cell membrane impermeable and able to stain DNA once cell membrane integrity is damaged during apoptosis. In the experiments, after treatments, cells (2.5×10^5/ml) were incubated with 100 nM DiOC6(3) in PBS for 15 min at 37° C. Then the cells were washed in PBS once, followed by incubation with 2.5 μg/ml PI for additional 10 min at room temperature. The samples were subjected to cell flow cytometric analysis, and FACScan (Becton Dickinson) was used to analyze the fluorescence of DIOC6(3) and PI [2].

Assay [4] deals with PC-3 cells. The assay is described as follows: MTT cell viability assay, PC-3 cells. The following applies: for IC50: PC-3 cells, single agent, read-out: 50% inhibitory concentration (IC50); for IC50 / effect on growth inhibitory effect of zinc, SFN and their combination: MTT; for effect on growth inhibitory effect of zinc, SFN and their combination: PC-3, inhibitor 6 mM pretreatment. The protocol: Two human prostatic cell lines were used: a) HPR-1, a cell line derived from normal human prostate epithelial cells (kindly provided by Dr. C. K. Choo, University of Hong Kong, Hong Kong, China); and b) PC-3, a human malignant prostate cell line (ATCC, Rockville, Md.). HPR-1 cells were cultured in keratinocyte medium supplemented with epidermal growth factor (EGF) ([…]) and bovine pituitary extracts (25 mg/500 ml) (Gibco BRL, Life Technologies, Bethesda, Md.). PC-3 cells were cultured in RPMI-1640 medium with 5% or 10% of fetal bovine serum (FBS), respectively. All media were supplemented with penicillin/streptomycin (1 U/ml, Invitrogen), and the cells were maintained at 37° C. in a humidified incubator with 5% CO2. The passages of the cell lines were within the range of 5-40. Once the cell density reached 50-60% confluence, the growth media were replaced by fresh serum/supplement-free medium for 24 h to synchronize cell growth. The cells were then treated with or without zinc sulfate (concentrations as indicated in the legends) in fresh serum/supplement-free medium for 0, 1, 3, 6, 12, and 24 h, respectively.
(§2) Cell viability and proliferation were evaluated with the MTT assay. The cells were seeded at a density of 9×10^3 cells/well in a 96 well plate containing 100 μl culture medium/well. After attachment, cells were treated with or without zinc and/or SFN at various concentrations in serum/supplement free medium. After 24 h treatment, 10 μl MTT (5 mg/ml, sigma) was added into each well and incubated at 37° C. for 1 h. Then the medium was removed and 100 μl dimethyl sulfoxide (DMSO) was added to dissolve water-insoluble formazan crystals converted from water-soluble MTT by living cells. The color absorbency of formazan was detected at a wavelength of 540 nm using a microplate reader (Molecular Devices).
[formula] experiments were designed by a statistics-based method utilizing the maximal power design developed by Fang and Tan(2003, 2008) and the corresponding SynStat version 1.beta software (http://www.umgcc.org/research/biostat_software.htm), This method uses uniform measures maximizes the minimum power of the F-test to detect departures from the additive action of drugs. […] With the information from experiments of single agents, SynStat derived 21 mixtures of the two agents and 6 replicates at each mixture based on the pooled variations in single agent experiments, which have 80% statistical power to detect at least a 15% difference in viability between the predicted additive values and the observed values at a significance level of 5%. Then, cells are exposed to these 21 mixtures and the cytotoxicity of this combination is determined. Upon completion of the experiments, we use the F-statistic given by Tan et al. (2003) to test the hypothesis of the additive action of two agents and calculate the p-value of the F-test. If the p-value is greater than 0.05, we can accept the hypothesis of the additive action of two agents. Otherwise, we calculate the interaction index (τ), which is proposed by Berenbaum who adopted the Lowe additivity model (Berenbaum, 1977) where, for a given cytotoxic effect, xA and xB are the concentrations of zinc and SFN in the combination, and XA and XB are the concentrations of zinc and SFN respectively that achieve the same cytotoxic effect when given alone. A τ value of 1 indicates additivity; τ<1 indicates synergy, and τ>1 indicates antagonism.
For orientation: Tetrazolium dyes change colour on reduction, which living cells bring about.

A further assay relates to p38. The assay is described as follows: Western blot of p38 activation in PC-3 cells. The following applies: PC-3, 6 h treatment, versus control. The protocol: as §1
Another assay relates to HPR-1 cells. The assay is described as follows: MTT cell viability assay, HPR-1 cells. The procedure:
as §2, with “Two human prostatic cell lines were used: a) HPR-1, a cell line derived from normal human prostate epithelial cells (kindly provided by Dr. C. K. Choo, University of Hong Kong, Hong Kong, China); and b) PC-3, a human malignant prostate cell line (ATCC, Rockville, Md.). HPR-1 cells were cultured in keratinocyte medium supplemented with epidermal growth factor (EGF) ([…]) and bovine pituitary extracts (25 mg/500 ml) (Gibco BRL, Life Technologies, Bethesda, Md.). […] The passages of the cell lines were within the range of 5-40. […] Cell” for “Cell”

Assay [5] deals with MT1/2. As to the kind of experiment: Western blot of MT1/2 expression in PC-3 cells. The following applies: zinc at 24 h, SFN and combination at 6 and 24 h. The protocol: as §1
Assay [6] relates to cytochrome c, pro-caspase 3 and PARP. As to the kind of experiment: Western blot of apoptosis proteins in PC-3 cells. The following applies: PC-3, zinc 12.5 μM or SFN 12 μM alone, 24 h. The procedure: as §1, with “Calif.). […]” for “Calif.).”

Where two headings read alike, the source gives them in different places.

Turning to `O=S(=O)([O-])[O-].[Zn+2]` [zinc, zinc sulfate], the MT1/2 protein levels result is listed as “induce expression of MT1/2 significantly” in the assay on MT1/2 [1] and “significant induction” in the assay on MT1/2 [5]. Moreover, the “increase of ROS level” value with PC-3 cells [2] (PC-3, zinc alone, late time points (12 to 24 h)) was 40-50%. The “effect on MMP versus control, single agent” value with PC-3 cells [3] is on record as “increase one fold”. In addition, the IC50 in the assay on PC-3 cells [4] (24 h) came out at 16.2 ± 0.9 µM. The “PC-3 cells that could survive” value in the assay on PC-3 cells [4] (zinc 30 μM, 24 h) was “less than 20%”. In addition, the “phosphorylation of p38” value in the assay on p38 is given as “increased phosphorylation of p38”. Also, the “HPR-1 cells still alive” value in the assay with HPR-1 cells (zinc 30 μM, 24 h) is “around 90%”. In addition, the “response of HPR-1 cells to zinc” value with HPR-1 cells (zinc alone at doses of the six selected combinations, 24 h) is given as “no response”. The “apoptotic effect (cytochrome c, pro-caspase 3, PARP), single agent” value in assay [6] is reported as “lack of cell responses”.

Turning to `CC(=O)N[C@@H](CS)C(=O)O` [NAC, N-Acetyl Cysteine], in the assay on PC-3 cells [2], the “effect on ROS production induced by zinc, SFN or zinc/SFN combination” value is given as “significantly inhibited ROS production” and the “effect on surge of ROS induced by zinc/SFN combination” value is given as “completely abolished”. Further, the “effect on MMP alteration induced by zinc/SFN” value with PC-3 cells [3] was “completely prevented”. In addition, in the assay with PC-3 cells [4], the “effect on growth inhibitory effect of zinc, SFN and their combination” value is “concordantly abolished”.

For the compound `C[S+]([O-])CCCCN=C=S` (centres unmarked) [SFN, 1-Isothiocyanato-4-methylsulfinylbutane], the MT1/2 protein levels entry in the assay on MT1/2 [1] is recorded as “decreased expression of MT1/2”; in the assay with MT1/2 [5], “no effect or a slight inhibition”. The “increase of ROS levels” value in the assay on PC-3 cells [2] (late time points (12 to 24 h), first value) is “about 35%”; with PC-3 cells [2] (late time points (12 to 24 h), second value) it was roughly 55%. Also, the “effect on MMP versus control, single agent” value in the assay on PC-3 cells [3] was “did not affect MMP at all”. Also, the IC50 in the assay with PC-3 cells [4] (Homo sapiens, 24 h) amounted to 20.3 ± 0.8 µM. In the assay with p38, the “phosphorylation of p38” value is listed as “increased phosphorylation of p38”. For the same compound, the “HPR-1 cells still alive (plateau)” value in the assay with HPR-1 cells (SFN 25 μM and even higher, 24 h) stood at 60%. Moreover, the “response of HPR-1 cells to lower concentration of SFN” value with HPR-1 cells (SFN <10 μM, 24 h) is “no response”. Also, the “proliferation of HPR-1 cells” value with HPR-1 cells (SFN at the range of 10 to 25, 24 h, less effective than in PC-3 cells) is on record as “inhibited in a dose-dependent pattern”. The “apoptotic effect (cytochrome c, pro-caspase 3, PARP), single agent” value in assay [6] is “lack of cell responses”.

As to `N[C@@H](CCC(=O)N[C@@H](CS)C(=O)NCC(=O)O)C(=O)O` [GSH, reduced glutathionein], in the assay with PC-3 cells [2], the “effect on ROS production induced by zinc, SFN or zinc/SFN combination” value is “significantly inhibited ROS production” and the “effect on surge of ROS induced by zinc/SFN combination” value is listed as “completely abolished”. Further, the “effect on MMP alteration induced by zinc/SFN” value in the assay on PC-3 cells [3] is recorded as “completely prevented”. Further, the “effect on growth inhibitory effect of zinc, SFN and their combination” value in the assay with PC-3 cells [4] is on record as “concordantly abolished”.
